Measurements: patent US20120083522A1, “MODULATION OF INFLAMMATORY RESPONSES BY FACTOR XI” (Isis Pharmaceuitcals, inc., priority 2009, published 2012)
In the oligonucleotide strings, read from the 5' end, every base follows the letter of its sugar. An asterisk marks phosphorothioate; unmarked linkages are phosphodiester. Other units and linkages are bracketed, terminal groups are in braces. A string of capitals states the bases alone. e = 2'-O-(2-methoxyethyl) (MOE); [5mC] = 5-methylcytosine; d = 2'-deoxy (DNA)

Each substance was assayed on human Factor XI mRNA (assay: Antisense inhibition in HepG2 cells by microwalk gapmers, 75 nM, lipofectin (Example 3)). Details: HepG2, 75 nM, approximately 24 hours, nucleobases 656 to 704 of SEQ ID NO: 1.
Format: cell-based
Procedure: These gapmers were designed by creating gapmers shifted slightly upstream and downstream (i.e. “microwalk”) of the original gapmers from Table 3. Gapmers were also created with various motifs, e.g. 5-10-5 MOE, 3-14-3 MOE, and 2-13-5 MOE. These gapmers were tested in vitro. Cultured HepG2 cells at a density of 10,000 cells per well were transfected using lipofectin reagent with 75 nM antisense oligonucleotide. After a treatment period of approximately 24 hours, RNA was isolated from the cells and Factor XI mRNA levels were measured by quantitative real-time PCR. Factor XI mRNA levels were adjusted according to total RNA content, as measured by RIBOGREEN®. Results are presented as percent inhibition of Factor XI, relative to untreated control cells.
The chimeric antisense oligonucleotides in Table 4 were designed as 5-10-5 MOE, 3-14-3 MOE, and 2-13-5 MOE gapmers. The first listed gapmers in Table 4 are the original gapmers (see Table 3) from which the remaining gapmers were designed via microwalk and are designated by an asterisk. The 5-10-5 gapmers are 20 nucleotides in length, wherein the central gap segment is comprised of 10 2′-deoxynucleotides and is flanked on both sides (in the 5′ and 3′ directions) by wings comprising 5 nucleotides each. The 3-14-3 gapmers are 20 nucleotides in length, wherein the central gap segment is comprised of 14 2′-deoxynucleotides and is flanked on both sides (in the 5′ and 3′ directions) by wings comprising 3 nucleotides each. The 2-13-5 gapmers are 20 nucleotides in length, wherein the central gap segment is comprised of 13 2′-deoxynucleotides. The central gap is flanked on the 5′ end with a wing comprising 2 nucleotides and on the 3′ end with a wing comprising 5 nucleotides. For each of the motifs (5-10-5, 3-14-3, and 2-13-5), each nucleotide in the 5′ wing segment and each nucleotide in the 3′ wing segment has a 2′-MOE modification. The internucleoside linkages throughout each gapmer are phosphorothioate (P═S) linkages. All cytidine residues throughout each gapmer are 5-methylcytidines. “Target start site” indicates the 5′-most nucleotide to which the gapmer is targeted. “Target stop site” indicates the 3′-most nucleotide to which the gapmer is targeted. Each gapmer listed in Table 4 is targeted to SEQ ID NO: 1 (GENBANK Accession No. NM_000128.3).

Substance	% inhibition
416894 (antisense eA*eT*eG*d[5mC]*d[5mC]*d[5mC]*dT*dT*d[5mC]*dA*dT*dG*dT*d[5mC]*dT*dA*dG*eG*eT*e[5mC]) [compound 416894]	84%

Same assay, conditions: HepG2 cells, 75 nM, oligonucleotides targeted to nucleobases 738 to 762 of SEQ ID NO: 1

Substance	% inhibition of human Factor XI mRNA levels
416898 (antisense e[5mC]*e[5mC]*eG*dT*dG*d[5mC]*dA*dT*d[5mC]*dT*dT*dT*d[5mC]*dT*dT*dG*dG*e[5mC]*eA*eT) [compound 416898]	88%
416899 (antisense eT*e[5mC]*e[5mC]*dG*dT*dG*d[5mC]*dA*dT*d[5mC]*dT*dT*dT*d[5mC]*dT*dT*dG*eG*e[5mC]*eA) [compound 416899]	86%
416900 (antisense eA*eT*e[5mC]*d[5mC]*dG*dT*dG*d[5mC]*dA*dT*d[5mC]*dT*dT*dT*d[5mC]*dT*dT*eG*eG*e[5mC]) [compound 416900]	90%
416901 (antisense e[5mC]*eA*eT*d[5mC]*d[5mC]*dG*dT*dG*d[5mC]*dA*dT*d[5mC]*dT*dT*dT*d[5mC]*dT*eT*eG*eG) [compound 416901]	65%
416902 (antisense eT*e[5mC]*eA*dT*d[5mC]*d[5mC]*dG*dT*dG*d[5mC]*dA*dT*d[5mC]*dT*dT*dT*d[5mC]*eT*eT*eG) [compound 416902]	46%
416903 (antisense eG*eT*e[5mC]*dA*dT*d[5mC]*d[5mC]*dG*dT*dG*d[5mC]*dA*dT*d[5mC]*dT*dT*dT*e[5mC]*eT*eT) [compound 416903]	88%

Same assay, conditions: HepG2 cells, 75 nM, oligonucleotides targeted to nucleobases 1018 to 1042 of SEQ ID NO: 1

Substance	% inhibition of human Factor XI mRNA levels
416904 (antisense e[5mC]*e[5mC]*eG*dG*dG*dA*dT*dG*dA*dT*dG*dA*dG*dT*dG*d[5mC]*dA*eG*eA*eT) [compound 416904]	90%
416905 (antisense eA*e[5mC]*e[5mC]*dG*dG*dG*dA*dT*dG*dA*dT*dG*dA*dG*dT*dG*d[5mC]*eA*eG*eA) [compound 416905]	85%
416906 (antisense eA*eA*e[5mC]*d[5mC]*dG*dG*dG*dA*dT*dG*dA*dT*dG*dA*dG*dT*dG*e[5mC]*eA*eG) [compound 416906]	88%
416907 (antisense e[5mC]*eA*eA*d[5mC]*d[5mC]*dG*dG*dG*dA*dT*dG*dA*dT*dG*dA*dG*dT*eG*e[5mC]*eA) [compound 416907]	90%

Same assay, conditions: HepG2 cells, 75 nM, oligonucleotides targeted to nucleobases 1062 to 1091 of SEQ ID NO: 1

Substance	% inhibition of human Factor XI mRNA levels
416844 (antisense e[5mC]*eT*eT*eT*eG*dA*dG*dA*dT*dT*d[5mC]*dT*dT*dT*dG*eG*eG*e[5mC]*e[5mC]*eA) [compound 416844]	90%
416845 (antisense eT*e[5mC]*eT*eT*eT*dG*dA*dG*dA*dT*dT*d[5mC]*dT*dT*dT*eG*eG*eG*e[5mC]*e[5mC]) [compound 416845]	86%
416846 (antisense eT*eT*e[5mC]*eT*eT*dT*dG*dA*dG*dA*dT*dT*d[5mC]*dT*dT*eT*eG*eG*eG*e[5mC]) [compound 416846]	72%
416847 (antisense eT*eT*eT*e[5mC]*eT*dT*dT*dG*dA*dG*dA*dT*dT*d[5mC]*dT*eT*eT*eG*eG*eG) [compound 416847]	50%
416909 (antisense eA*eT*eT*d[5mC]*dT*dT*dT*dG*dG*dG*d[5mC]*d[5mC]*dA*dT*dT*d[5mC]*d[5mC]*eT*eG*eG) [compound 416909]	78%
416910 (antisense eG*eA*eT*dT*d[5mC]*dT*dT*dT*dG*dG*dG*d[5mC]*d[5mC]*dA*dT*dT*d[5mC]*e[5mC]*eT*eG) [compound 416910]	90%
416911 (antisense eA*eG*eA*dT*dT*d[5mC]*dT*dT*dT*dG*dG*dG*d[5mC]*d[5mC]*dA*dT*dT*e[5mC]*e[5mC]*eT) [compound 416911]	90%
416912 (antisense eG*eA*eG*dA*dT*dT*d[5mC]*dT*dT*dT*dG*dG*dG*d[5mC]*d[5mC]*dA*dT*eT*e[5mC]*e[5mC]) [compound 416912]	92%
416913 (antisense eT*eG*eA*dG*dA*dT*dT*d[5mC]*dT*dT*dT*dG*dG*dG*d[5mC]*d[5mC]*dA*eT*eT*e[5mC]) [compound 416913]	93%
416914 (antisense eT*eT*eG*dA*dG*dA*dT*dT*d[5mC]*dT*dT*dT*dG*dG*dG*d[5mC]*d[5mC]*eA*eT*eT) [compound 416914]	87%
416915 (antisense eT*eT*eT*dG*dA*dG*dA*dT*dT*d[5mC]*dT*dT*dT*dG*dG*dG*d[5mC]*e[5mC]*eA*eT) [compound 416915]	79%
416916 (antisense e[5mC]*eT*eT*dT*dG*dA*dG*dA*dT*dT*d[5mC]*dT*dT*dT*dG*dG*dG*e[5mC]*e[5mC]*eA) [compound 416916]	91%
416917 (antisense eT*e[5mC]*eT*dT*dT*dG*dA*dG*dA*dT*dT*d[5mC]*dT*dT*dT*dG*dG*eG*e[5mC]*e[5mC]) [compound 416917]	92%
416918 (antisense eT*eT*e[5mC]*dT*dT*dT*dG*dA*dG*dA*dT*dT*d[5mC]*dT*dT*dT*dG*eG*eG*e[5mC]) [compound 416918]	63%
416919 (antisense eT*eT*eT*d[5mC]*dT*dT*dT*dG*dA*dG*dA*dT*dT*d[5mC]*dT*dT*dT*eG*eG*eG) [compound 416919]	27%

Same assay, conditions: HepG2 cells, 75 nM, oligonucleotides targeted to nucleobases 1275 to 1318 of SEQ ID NO: 1

Substance	% inhibition of human Factor XI mRNA levels
416920 (antisense eA*e[5mC]*eA*dG*dT*dT*dT*d[5mC]*dT*dG*dG*d[5mC]*dA*dG*dG*d[5mC]*d[5mC]*eT*e[5mC]*eG) [compound 416920]	88%
416921 (antisense e[5mC]*eA*e[5mC]*dA*dG*dT*dT*dT*d[5mC]*dT*dG*dG*d[5mC]*dA*dG*dG*d[5mC]*e[5mC]*eT*e[5mC]) [compound 416921]	88%
416927 (antisense eT*eT*eG*dG*dT*dG*d[5mC]*dA*d[5mC]*dA*dG*dT*dT*dT*d[5mC]*dT*dG*eG*e[5mC]*eA) [compound 416927]	87%
416928 (antisense eA*eT*eT*dG*dG*dT*dG*d[5mC]*dA*d[5mC]*dA*dG*dT*dT*dT*d[5mC]*dT*eG*eG*e[5mC]) [compound 416928]	91%
416929 (antisense e[5mC]*eA*eT*dT*dG*dG*dT*dG*d[5mC]*dA*d[5mC]*dA*dG*dT*dT*dT*d[5mC]*eT*eG*eG) [compound 416929]	83%
416930 (antisense eG*e[5mC]*eA*dT*dT*dG*dG*dT*dG*d[5mC]*dA*d[5mC]*dA*dG*dT*dT*dT*e[5mC]*eT*eG) [compound 416930]	87%
416932 (antisense e[5mC]*eG*eG*d[5mC]*dA*dT*dT*dG*dG*dT*dG*d[5mC]*dA*d[5mC]*dA*dG*dT*eT*eT*e[5mC]) [compound 416932]	92%
416933 (antisense eA*e[5mC]*eG*dG*d[5mC]*dA*dT*dT*dG*dG*dT*dG*d[5mC]*dA*d[5mC]*dA*dG*eT*eT*eT) [compound 416933]	92%
416934 (antisense eG*eA*e[5mC]*dG*dG*d[5mC]*dA*dT*dT*dG*dG*dT*dG*d[5mC]*dA*d[5mC]*dA*eG*eT*eT) [compound 416934]	90%
416935 (antisense eG*eG*eA*d[5mC]*dG*dG*d[5mC]*dA*dT*dT*dG*dG*dT*dG*d[5mC]*dA*d[5mC]*eA*eG*eT) [compound 416935]	92%
416936 (antisense e[5mC]*eG*eG*dA*d[5mC]*dG*dG*d[5mC]*dA*dT*dT*dG*dG*dT*dG*d[5mC]*dA*e[5mC]*eA*eG) [compound 416936]	89%
416937 (antisense eG*e[5mC]*eG*dG*dA*d[5mC]*dG*dG*d[5mC]*dA*dT*dT*dG*dG*dT*dG*d[5mC]*eA*e[5mC]*eA) [compound 416937]	93%
416938 (antisense eA*eG*e[5mC]*dG*dG*dA*d[5mC]*dG*dG*d[5mC]*dA*dT*dT*dG*dG*dT*dG*e[5mC]*eA*e[5mC]) [compound 416938]	90%
